Measured values: patent US20090314217A1, “APPARATUS AND METHOD FOR TREATING NON-HUMAN MAMMALS” (Under The Boardwalk Properties 8 (Proprietary) Limited, priority 2006, published 2009)

Assay: Blood tests on the horses on the days of the race (Table 1)
Assay type: in vivo, horse
Experimental: The apparatus 10 was used in a confidential trial to treat five horses taking part in an endurance race. The five horses were called Moniq, Shamon, Pauli, Viola and Ophelia. During treatment, the average temperature inside the enclosure 22 was between 42° C. and 45° C. and an oxygen flow rate of 1 l/min was supplied to the ozonator 52. During treatment, the average heart-rate for the non-accustomed horses was 42 beats per minute. The superficial skin temperature measured on the neck and the point of the shoulder of the horses was 39° C. in each case.
Table 1 provides information on the blood tests conducted on the five horses, on the days of the race as indicated.

[1] = horse Moniq, race day 2, treated days 1 and 2, day 1 value 4.4
[2] = horse Moniq, race day 3, treated days 1 and 2, day 1 value 4.4
[3] = horse Pauli, race day 2, pre-treated before race
[4] = horse Shamon, race day 3, treated day 2
[5] = horse Viola, race day 2, treated days 1 and 2, day 1 value 40

O=[O+][O-] [ozone]
PCT (horse Moniq, race day 2, treated days 1 and 2, day 1 value 0.04): 0.07%
MON = monocytes (horse Moniq, race day 2, treated days 1 and 2, day 1 value 0.57): 6e+07 L⁻¹
LYM = lymphocytes (horse Moniq, race day 2, treated days 1 and 2, day 1 value 1.80): 1.96e+09 L⁻¹
CA++ = calcium (horse Moniq, race day 2, treated days 1 and 2, day 1 value 2.98): 2.98 mmol/L
K+ = potassium [1]: 4.3 mmol/L
MON % = monocytes percentage [1]: 0.6%
GLU = glucose (horse Moniq, race day 2, treated days 1 and 2, day 1 value 4.7): 6.1 mmol/L
BUN = blood urea nitrogen (horse Moniq, race day 2, treated days 1 and 2, day 1 value 8): 9 mmol/L
RBC = red blood cell count (horse Moniq, race day 2, treated days 1 and 2, day 1 value 10.2): 9.21e+12 L⁻¹
GRA = granulocytes (horse Moniq, race day 2, treated days 1 and 2, day 1 value 10.5): 7.55e+09 L⁻¹
GGT = gamma glutamiel transferase (horse Moniq, race day 2, treated days 1 and 2, day 1 value 12): 11 Units/liter
WBC = white blood cell count (horse Moniq, race day 2, treated days 1 and 2, day 1 value 12.8): 9.56e+09 L⁻¹
LY % = lymphocytes percentage (horse Moniq, race day 2, treated days 1 and 2, day 1 value 14.0): 20.5%
MCH = mean corpuscular hemoglobin (horse Moniq, race day 2, treated days 1 and 2, day 1 value 15.1): 14.7 pg
HB = hemoglobin (horse Moniq, race day 2, treated days 1 and 2, day 1 value 15.5): 13.6 d/deciliter
RDWc (horse Moniq, race day 2, treated days 1 and 2, day 1 value 22.5): 22.2%
PDW (horse Moniq, race day 2, treated days 1 and 2, day 1 value 32.6): 37.2
ALB = albumin (horse Moniq, race day 2, treated days 1 and 2, day 1 value 36): 34 gram/liter
TBIL = total biliruben (horse Moniq, race day 2, treated days 1 and 2, day 1 value 37): 58 µmol/L
MCV = mean corpuscular volume (horse Moniq, race day 2, treated days 1 and 2, day 1 value 38): 37 femtoliter
MCHC = mean corpuscular hemoglobin concentration (horse Moniq, race day 2, treated days 1 and 2, day 1 value 40.0): 39.6 gram/deciliter
GLOB = globulin (horse Moniq, race day 2, treated days 1 and 2, day 1 value 43): 40 gram/liter
TP = total protein (horse Moniq, race day 2, treated days 1 and 2, day 1 value 79): 75 gram/liter
GR % = granulocytes percentage (horse Moniq, race day 2, treated days 1 and 2, day 1 value 81.6): 78.9%
PLT = platelets (horse Moniq, race day 2, treated days 1 and 2, day 1 value 83): 1.24e+11 L⁻¹
CRE = creatinine (horse Moniq, race day 2, treated days 1 and 2, day 1 value 96): 106 µmol/L
Na+ = sodium (horse Moniq, race day 2, treated days 1 and 2, day 1 value 139): 137 mmol/L
AST = aspertate amino transferase (horse Moniq, race day 2, treated days 1 and 2, day 1 value 468): 564 Units/liter
CK = creatine kinase (horse Moniq, race day 2, treated days 1 and 2, day 1 value 3873): 706 International Units/liter
PCT (horse Moniq, race day 3, treated days 1 and 2, day 1 value 0.04): 0.07%
MON = monocytes (horse Moniq, race day 3, treated days 1 and 2, day 1 value 0.57): 6e+07 L⁻¹
LYM = lymphocytes (horse Moniq, race day 3, treated days 1 and 2, day 1 value 1.80): 1.06e+09 L⁻¹
CA++ = calcium (horse Moniq, race day 3, treated days 1 and 2, day 1 value 2.98): 2.98 mmol/L
K+ = potassium [2]: 4.3 mmol/L
MON % = monocytes percentage [2]: 0.6%
GLU = glucose (horse Moniq, race day 3, treated days 1 and 2, day 1 value 4.7): 6.1 mmol/L
BUN = blood urea nitrogen (horse Moniq, race day 3, treated days 1 and 2, day 1 value 8): 9 mmol/L
RBC = red blood cell count (horse Moniq, race day 3, treated days 1 and 2, day 1 value 10.2): 9.21e+12 L⁻¹
GRA = granulocytes (horse Moniq, race day 3, treated days 1 and 2, day 1 value 10.5): 7.55e+09 L⁻¹
GGT = gamma glutamiel transferase (horse Moniq, race day 3, treated days 1 and 2, day 1 value 12): 11 Units/liter
WBC = white blood cell count (horse Moniq, race day 3, treated days 1 and 2, day 1 value 12.8): 9.56e+09 L⁻¹
LY % = lymphocytes percentage (horse Moniq, race day 3, treated days 1 and 2, day 1 value 14.0): 20.5%
MCH = mean corpuscular hemoglobin (horse Moniq, race day 3, treated days 1 and 2, day 1 value 15.1): 14.7 pg
HB = hemoglobin (horse Moniq, race day 3, treated days 1 and 2, day 1 value 15.5): 17.0 d/deciliter
RDWc (horse Moniq, race day 3, treated days 1 and 2, day 1 value 22.5): 22.2%
PDW (horse Moniq, race day 3, treated days 1 and 2, day 1 value 32.6): 37.2
ALB = albumin (horse Moniq, race day 3, treated days 1 and 2, day 1 value 36): 34 gram/liter
TBIL = total biliruben (horse Moniq, race day 3, treated days 1 and 2, day 1 value 37): 58 µmol/L
MCV = mean corpuscular volume (horse Moniq, race day 3, treated days 1 and 2, day 1 value 38): 37 femtoliter
MCHC = mean corpuscular hemoglobin concentration (horse Moniq, race day 3, treated days 1 and 2, day 1 value 40.0): 39.6 gram/deciliter
GLOB = globulin (horse Moniq, race day 3, treated days 1 and 2, day 1 value 43): 40 gram/liter
TP = total protein (horse Moniq, race day 3, treated days 1 and 2, day 1 value 79): 75 gram/liter
GR % = granulocytes percentage (horse Moniq, race day 3, treated days 1 and 2, day 1 value 81.6): 78.8%
PLT = platelets (horse Moniq, race day 3, treated days 1 and 2, day 1 value 83): 1.27e+11 L⁻¹
CRE = creatinine (horse Moniq, race day 3, treated days 1 and 2, day 1 value 96): 106 µmol/L
Na+ = sodium (horse Moniq, race day 3, treated days 1 and 2, day 1 value 139): 137 mmol/L
AST = aspertate amino transferase (horse Moniq, race day 3, treated days 1 and 2, day 1 value 468): 564 Units/liter
CK = creatine kinase (horse Moniq, race day 3, treated days 1 and 2, day 1 value 3873): 706 International Units/liter
ALB = albumin [3]: 32 gram/liter
AST = aspertate amino transferase [3]: 379 Units/liter
BUN = blood urea nitrogen [3]: 9 mmol/L
CA++ = calcium [3]: 3.13 mmol/L
CK = creatine kinase [3]: 1378 International Units/liter
CRE = creatinine [3]: 129 µmol/L
GGT = gamma glutamiel transferase [3]: 19 Units/liter
GLOB = globulin [3]: 47 gram/liter
GLU = glucose [3]: *6.9 mmol/liter
GR % = granulocytes percentage [3]: 88.0%
GRA = granulocytes [3]: 1.76e+10 L⁻¹
HB = hemoglobin [3]: 16.6 d/deciliter
K+ = potassium [3]: 5.1 mmol/L
LY % = lymphocytes percentage [3]: 7.0%
LYM = lymphocytes [3]: 1.39e+09 L⁻¹
MCH = mean corpuscular hemoglobin [3]: 15.8 pg
MCHC = mean corpuscular hemoglobin concentration [3]: 38.8 gram/deciliter
MCV = mean corpuscular volume [3]: 41 femtoliter
MON % = monocytes percentage [3]: 4.0%
MON = monocytes [3]: 8e+08 L⁻¹
Na+ = sodium [3]: 143 mmol/L
PCT [3]: 0.05%
PDW [3]: 33.8
PLT = platelets [3]: 1.1e+11 L⁻¹
RBC = red blood cell count [3]: 1.05e+13 L⁻¹
RDWc [3]: 21.9%
TBIL = total biliruben [3]: 96 µmol/L
TP = total protein [3]: 79 gram/liter
WBC = white blood cell count [3]: 1.98e+10 L⁻¹
ALB = albumin [4]: 31 gram/liter
AST = aspertate amino transferase [4]: 722 Units/liter
BUN = blood urea nitrogen [4]: 9 mmol/L
CA++ = calcium [4]: 2.76 mmol/L
CK = creatine kinase [4]: 1450 International Units/liter
CRE = creatinine [4]: 122 µmol/L
GGT = gamma glutamiel transferase [4]: 27 Units/liter
GLOB = globulin [4]: 35 gram/liter
GLU = glucose [4]: 6.3 mmol/L
GR % = granulocytes percentage [4]: 78.4%
GRA = granulocytes [4]: 1.24e+10 L⁻¹
HB = hemoglobin [4]: 11.9 d/deciliter
K+ = potassium [4]: 3.8 mmol/L
LY % = lymphocytes percentage [4]: 16.4%
LYM = lymphocytes [4]: 2.59e+09 L⁻¹
MCH = mean corpuscular hemoglobin [4]: 15.8 pg
MCHC = mean corpuscular hemoglobin concentration [4]: 39.3 gram/deciliter
MCV = mean corpuscular volume [4]: 40 femtoliter
MON % = monocytes percentage [4]: 5.2%
MON = monocytes [4]: 8.2e+08 L⁻¹
Na+ = sodium [4]: 138 mmol/L
PCT [4]: 0.06%
PDW [4]: 35.8
PLT = platelets [4]: 1.02e+11 L⁻¹
RBC = red blood cell count [4]: 7.56e+12 L⁻¹
RDWc [4]: 22.1%
TBIL = total biliruben [4]: 52 µmol/L
TP = total protein [4]: 66 gram/liter
WBC = white blood cell count [4]: 1.58e+10 L⁻¹
PCT (horse Viola, race day 2, treated days 1 and 2, day 1 value 0.09): 0.05%
MON = monocytes (horse Viola, race day 2, treated days 1 and 2, day 1 value 0.64): 5.6e+08 L⁻¹
LYM = lymphocytes (horse Viola, race day 2, treated days 1 and 2, day 1 value 1.34): 2.14e+09 L⁻¹
GLU = glucose (horse Viola, race day 2, treated days 1 and 2, day 1 value 2.9): 5.7 mmol/L
CA++ = calcium (horse Viola, race day 2, treated days 1 and 2, day 1 value 2.97): 2.88 mmol/L
MON % = monocytes percentage (horse Viola, race day 2, treated days 1 and 2, day 1 value 4.3): 4.3%
K+ = potassium (horse Viola, race day 2, treated days 1 and 2, day 1 value 5.1): 3.7 mmol/L
LY % = lymphocytes percentage (horse Viola, race day 2, treated days 1 and 2, day 1 value 8.9): 16.3%
BUN = blood urea nitrogen (horse Viola, race day 2, treated days 1 and 2, day 1 value 9): 9 mmol/L
RBC = red blood cell count (horse Viola, race day 2, treated days 1 and 2, day 1 value 9.73): 9.03e+12 L⁻¹
GRA = granulocytes (horse Viola, race day 2, treated days 1 and 2, day 1 value 13.0): 1.04e+10 L⁻¹
WBC = white blood cell count (horse Viola, race day 2, treated days 1 and 2, day 1 value 15.0): 1.31e+10 L⁻¹
HB = hemoglobin (horse Viola, race day 2, treated days 1 and 2, day 1 value 15.2): 14.4 d/deciliter
MCH = mean corpuscular hemoglobin (horse Viola, race day 2, treated days 1 and 2, day 1 value 15.7): 16.0 pg
GGT = gamma glutamiel transferase (horse Viola, race day 2, treated days 1 and 2, day 1 value 17): 18 Units/liter
RDWc (horse Viola, race day 2, treated days 1 and 2, day 1 value 22.4): 22.6%
ALB = albumin (horse Viola, race day 2, treated days 1 and 2, day 1 value 34): 30 gram/liter
PDW (horse Viola, race day 2, treated days 1 and 2, day 1 value 35.8): 31.0
MCHC = mean corpuscular hemoglobin concentration (horse Viola, race day 2, treated days 1 and 2, day 1 value 39.4): 39.0 gram/deciliter
GLOB = globulin [5]: 39 gram/liter
MCV = mean corpuscular volume [5]: 41 femtoliter
TBIL = total biliruben (horse Viola, race day 2, treated days 1 and 2, day 1 value 41): 48 µmol/L
TP = total protein (horse Viola, race day 2, treated days 1 and 2, day 1 value 75): 69 gram/liter
GR % = granulocytes percentage (horse Viola, race day 2, treated days 1 and 2, day 1 value 86.8): 79.4%
CRE = creatinine (horse Viola, race day 2, treated days 1 and 2, day 1 value 131): 99 µmol/L
Na+ = sodium (horse Viola, race day 2, treated days 1 and 2, day 1 value 144): 138 mmol/L
PLT = platelets (horse Viola, race day 2, treated days 1 and 2, day 1 value 146): 9.9e+10 L⁻¹
CK = creatine kinase (horse Viola, race day 2, treated days 1 and 2, day 1 value 5896): 1599 International Units/liter
AST = aspertate amino transferase (horse Viola, race day 2, treated days 1 and 2, day 1 value >2000): 1814 Units/liter
